Laboratory results from patent US7683171B2, “1H-imidazo[4,5-d]thieno[3,2-b]pyridine based tricyclic compounds and pharmaceutical compositions comprising same” (Bristol-Myers Squibb Company, priority 2005, dated 2010).

System: T98
Assay: Ames testing
Assay type: cell-based
Details: T98 with S9 activation

## Cl.Cn1cnc2c(N)nc3cc(-c4cccc(F)c4)sc3c21 [Example A5, 7-(3-Fluorophenyl)-1-methyl-1H-imidazo[4,5-d]thieno[3,2-b]pyridin-4-amine hydrochloride salt]
  Ames testing: positive
